Source: EP2550964A1, “Temsirolimus for use in the prevention and/or treatment of a delta 9-tetrahydrocannabinol-induced anxiety disorder” (Universitat Pompeu-Fabra, priority 2011, dated 2013)

What was measured:
Assay type in all cases: in vivo
mice [1] = assay: Object-recognition task (V-maze, discrimination index)
Protocol: Object-recognition memory was assayed in the V-maze, a black Plexiglas maze with two corridors (30 cm long x 4.5 cm wide) set in V with a 90 degrees angle, and 15 cm high walls. The test was performed as previously described (Puighermanal, E. et al., 2009. Nature Neuroscience, 12:1152-1158). Briefly, a discrimination index was calculated in the test session. All the drugs (temsirolimus or THC and their vehicles) were injected intraperitoneally after the training session. Objects to be explored in the test were made out of different materials (marble, wood or plastic) and shapes, and had been tested in previous experiments to show no preference or dislike for control mice. On the first day, mice were placed for 9 min in the V-maze for habituation. On the second day, mice were placed back in the V-maze where two objects were positioned at the end of the corridors. On the next day (test day), mice were placed in the V-maze where one of the objects was replaced by a new object. The time spent exploring the familiar object (Tf) and the novel object (Tn) were counted and the discrimination index (D.I.) was calculated as follows: D.I.= [Tn-Tf]/[Tn+Tf]. D.I. close to zero means a cognitive deficit, while D.I. close to 0.5 means a good cognitive function in this memory test.

mice [2] = tested on: mice
Protocol: Elevated plus maze test. The elevated plus maze test was performed in a black Plexiglas apparatus with four arms (29 cm long x 5 cm wide) set in cross from a neutral central square (5 cm x 5 cm) elevated 40 cm above the floor. Five-min test sessions were performed 120 min after drug administration through intraperitoneal injection (temsirolimus and/or THC, and their vehicles). The percentage of time spent in the open arms was determined as a measure of anxiety-like processes. The model is based on rodents' aversion of open spaces. Anxiety reduction in the elevated plus maze test is indicated by an increase in the proportion of time spent in the open arms

mice [3] = assay: Antinociception, acetic acid visceral pain test (number of writhes)
Protocol: This visceral pain test was performed 120 min after THC administration. Mice received an i.p. administration of acetic acid (0.8 % solution) injected in a volume of […] of body weight. Immediately after, mice were placed in individual transparent cylinders (16 cm high, 16 cm diameter) for 20 min. The number of writhes was counted during 15 min, starting 5 min after acetic acid administration.

Row | Structure (SMILES) | blockade of the amnesic effect of THC (mice [1]; pre-treatment with temsirolimus 1 mg/kg/day (3 mg/m^2/day), THC 10 mg/kg/day (30 mg/m^2/day), Figure 2) | prevention of the THC cognitive deficit on chronic co-administration (mice [1]; temsirolimus 1 mg/kg/day (3 mg/m^2/day) together with THC 10 mg/kg/day (30 mg/m^2/day), chronic, Figure 3B) | effects on the recognition memory (mice [1]; temsirolimus alone, 1 mg/kg/day (3 mg/m^2/day), i.p., Figure 1) | amnesic effects (object-recognition test) (mice [1]; temsirolimus alone, high doses 10, 30 and 100 mg/kg/day (30, 90 and 300 mg/m^2/day), i.p., Figure 1) | influence on the anxiolytic effect of THC (mice [2]; temsirolimus 1 mg/kg/day (3 mg/m^2/day), THC 0.3 mg/kg/day (0.9 mg/m^2/day), Figure 5) | blockade of the anxiogenic effects of THC (mice [2]; temsirolimus 1 mg/kg/day (3 mg/m^2/day), THC 10 mg/kg/day (30 mg/m^2/day), i.p., test 120 min after administration, Figure 4) | influence on the analgesic capacity of THC (mice [3]; pre-treatment with temsirolimus 1 mg/kg/day (3 mg/m^2/day) and THC 10 mg/kg/day (30 mg/m^2/day), Figure 6) | cognitive deficit on chronic administration (object-recognition test) (mice [1]; mouse, in vivo) | persistence of cognitive deficit after finishing the exposition to THC (mice [1]; mouse, in vivo) | amnesic effect in the object-recognition test (mice [1]; mouse, in vivo, ip) | anxiety-like effect of THC at low dose (mice [2]; mouse, in vivo) | anxiety-like effect of THC at high doses (mice [2]; mouse, in vivo, 10 mg/kg/day) | analgesic effects (abdominal writhes) (mice [3]; mouse, in vivo)
1 | CO[C@H]1C[C@@H]2CC[C@@H](C)[C@@](O)(O2)C(=O)C(=O)N2CCCC[C@H]2C(=O)O[C@H]([C@H](C)C[C@@H]2CC[C@@H](OC(=O)C(C)(CO)CO)[C@H](OC)C2)CC(=O)[C@H](C)/C=C(\C)[C@@H](O)[C@@H](OC)C(=O)[C@H](C)C[C@H](C)/C=C/C=C/C=C/1C [temsirolimus, (1R,2R,4S)-4-{(2R)-2-[(3S,6R,7E,9R,10R,12R,145,15E,17E,19E,215,23S,26R,27R,34aS)-9,27-dihydroxy-10,21-dimethoxy-6,8,12,14,20,26-hexamethyl-1,5,11,28,29-pentaoxo-1,4,5,6,9,10,11,12,13,14,21,22,23,24,25,26,27,28,29,31,32,33,34,34a-tetracosahydro-3H-23,27-epoxypyrido[2,1-c][1,4]oxazacyclohentriacontin-3-yl]propyl}-2-methoxycyclohexyl 3-hydroxy-2-(hydroxymethyl)-2-methylpropanoate] | blocks the amnesic effect | prevented the appearance of the THC cognitive deficit | does not have effects on the recognition memory | shows amnesic effects | does not avoid the anxiolytic effect | blocks the anxiogenic effects | does not affect the analgesic capacity of THC |  |  |  |  |  | 
2 | CCCCCc1cc(O)c2c(c1)OC(C)(C)[C@@H]1CCC(C)=C[C@@H]21 [THC, (-)-(6aR,10aR)-6,6,9-trimethyl-3-pentyl-6a,7,8,10a-tetrahydro-6H-benzo[c]chromen-1-ol] |  |  |  |  |  |  |  | produces a cognitive deficit | continues showing a cognitive deficit during the following four days | always presents an amnesic effect | causes anxiolytic effects | cause anxiogenic effects | has analgesic effects
